Results: PubChem BioAssay (NCI)
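Where inhibition never reached the appropriate level, the endpoint shown equals the highest concentration tested. Otherwise, values were interpolated linearly from a five-concentration, 48-hour dose response in 96-well plates. Here, GI50 denotes the concentration required for 50% inhibition of growth. TGI: concentration producing complete growth inhibition.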

Assays:
Assay in all cases: NCI-60 cell line screen, 48 h
NCI-H23 lung = tested on: NCI-H23 lung
M14 melanoma = tested on: M14 melanoma
NCI/ADR-RES ovarian = tested on: NCI/ADR-RES ovarian
LOX IMVI melanoma = tested on: LOX IMVI melanoma
HCT-15 colon = tested on: HCT-15 colon
SNB-19 CNS = tested on: SNB-19 CNS
HOP-62 NSCLC = tested on: HOP-62 NSCLC
HOP-92 NSCLC = tested on: HOP-92 NSCLC
SK-MEL-5 melanoma = tested on: SK-MEL-5 melanoma
SK-MEL-28 melanoma = tested on: SK-MEL-28 melanoma
HS 578T breast = tested on: HS 578T breast
OVCAR-5 ovarian = tested on: OVCAR-5 ovarian
OVCAR-3 ovarian = tested on: OVCAR-3 ovarian
SNB-75 CNS = tested on: SNB-75 CNS
T-47D breast = tested on: T-47D breast
MCF7 breast = tested on: MCF7 breast
EKVX NSCLC = tested on: EKVX NSCLC
KM12 colon = tested on: KM12 colon
786-0 renal = tested on: 786-0 renal
SF-268 CNS = tested on: SF-268 CNS
MDA-MB-231 breast = tested on: MDA-MB-231 breast
SR leukemia = tested on: SR leukemia
A549 NSCLC = tested on: A549 NSCLC
UO-31 renal = tested on: UO-31 renal
RXF 393 renal = tested on: RXF 393 renal
ACHN renal = tested on: ACHN renal
SF-539 CNS = tested on: SF-539 CNS

COc1ccc2c(CCC(c3ccccc3)c3ccccc3)c3[n+](cc2c1OC)CCc1cc2c(cc1-3)OCO2 showed a TGI (NCI-H23 lung) of 1940 nM, a GI50 (M14 melanoma) of 296 nM and a TGI (M14 melanoma) of 1740 nM. The GI50 (NCI/ADR-RES ovarian) was 13100 nM, the TGI (NCI/ADR-RES ovarian) was 55700 nM and the GI50 (LOX IMVI melanoma) was 255 nM. It also gave a TGI (LOX IMVI melanoma) of 1360 nM, a GI50 (HCT-15 colon) of 2280 nM and a TGI (HCT-15 colon) of 7430 nM. It also gave a GI50 (SNB-19 CNS) of 242 nM, a TGI (SNB-19 CNS) of 1740 nM and a GI50 (HOP-62 NSCLC) of 546 nM. For the same compound, the TGI (HOP-62 NSCLC) was 1800 nM, the GI50 (HOP-92 NSCLC) was 150 nM and the TGI (HOP-92 NSCLC) was 596 nM. For the same compound, the GI50 (SK-MEL-5 melanoma) was 38.3 nM, the TGI (SK-MEL-5 melanoma) was 214 nM and the GI50 (SK-MEL-28 melanoma) was 462 nM. It also gave a TGI (SK-MEL-28 melanoma) of 2060 nM, a GI50 (HS 578T breast) of 799 nM and a TGI (HS 578T breast) of 3820 nM. The GI50 (OVCAR-5 ovarian) was 1760 nM, the TGI (OVCAR-5 ovarian) was 5950 nM and the GI50 (OVCAR-3 ovarian) was 28 nM. For the same compound, the TGI (OVCAR-3 ovarian) was 1300 nM, the GI50 (SNB-75 CNS) was 266 nM and the TGI (SNB-75 CNS) was 1840 nM. For the same compound, the GI50 (T-47D breast) was 241 nM, the TGI (T-47D breast) was 1760 nM and the GI50 (MCF7 breast) was 483 nM. For the same compound, the TGI (MCF7 breast) was 3220 nM, the GI50 (EKVX NSCLC) was 492 nM and the TGI (EKVX NSCLC) was 7250 nM. For the same compound, the GI50 (KM12 colon) was 160 nM, the TGI (KM12 colon) was 1190 nM and the GI50 (786-0 renal) was 1090 nM. For the same compound, the TGI (786-0 renal) was 2500 nM, the GI50 (SF-268 CNS) was 519 nM and the TGI (SF-268 CNS) was 1980 nM. It also gave a GI50 (MDA-MB-231 breast) of 1100 nM, a TGI (MDA-MB-231 breast) of 3480 nM and a GI50 (SR leukemia) of 373 nM. For the same compound, the TGI (SR leukemia) was 3240 nM, the GI50 (A549 NSCLC) was 1550 nM and the TGI (A549 NSCLC) was 5070 nM. For the same compound, the GI50 (UO-31 renal) was 3200 nM, the TGI (UO-31 renal) was 13300 nM and the GI50 (RXF 393 renal) was 686 nM. The TGI (RXF 393 renal) was 2200 nM, the GI50 (ACHN renal) was 1290 nM and the TGI (ACHN renal) was 5220 nM. For the same compound, the GI50 (SF-539 CNS) was 846 nM and the TGI (SF-539 CNS) was 3670 nM.
